Test results reported in US12364429B2, “Compositions and methods for a universal clinical test for olfactory dysfunction” (The Rockefeller University, priority 2017, dated 2025).

Test system: trigeminal system
Experiment: Lateralization task (odorant applied into only one nostril)
Type: in vivo, human
Conditions: pure concentration; number of correct tasks out of 20; eucalyptol 4 trials, vanillin 6 trials
Excerpt: SMELL-S and SMELL-R were created with four different mixtures of 30 molecules drawn from a panel of 109 monomolecular, intensity-matched chemicals. These odorants were selected from stimuli utilized in previous psychophysical studies (21, 38). We used only molecules that minimally activated the trigeminal system, because such stimuli can be detected by anosmic subjects (39, 40). A characteristic of trigeminal activation by a molecule is a fresh, cold, burning, eucalyptus, pungent, or tickling sensation. We used a lateralization task in which an odorant is applied into only one nostril to assign a lateralization score to each molecule. It is possible to localize the stimulated nostril if it activates the trigeminal system. In contrast, it is much harder to localize an olfactory stimulus (41). Lateralization tasks were self-administered by one investigator. Two disposable squeeze bottles were placed in a device facilitating simultaneous squeezing and stimuli delivery in each nostril. Only one bottle was filled with an odor stimulus. The tip of each bottle was fitted with a foam piece that conformed to the investigator's nostril, and placed at the entrance of each nostril. The investigator squeezed both bottles simultaneously and attempted to localize which nostril had received the stimulus. After each task, the device was spun on a rotating platform to randomize the odor-stimulus side. […]

| SMILES | lateralization score (median) |
| --- | --- |
| CC12CCC(CC1)C(C)(C)O2 [eucalyptol] | 20 |
| COc1cc(C=O)ccc1O [vanillin] | 6.5 |
